Assay results taken from PMC117120 (BMC Biochemistry, 2002).
Changes are numbered by the printed parent chain. Values joined by “and” are separate entries in the source; they are usually repeats but may differ in a detail not shown here. Equal entries are not always repeated.

Assays:
[1] = biological target: T1, Y152A mutant mouse 5-HT3ASR (Mus musculus, UniProt P23979, Y153A); assay: [^3H]granisetron saturation binding, Y152A receptor; conditions: ± SE
T1 sequence (P23979 24-483 isoform P23979-2 Y153A): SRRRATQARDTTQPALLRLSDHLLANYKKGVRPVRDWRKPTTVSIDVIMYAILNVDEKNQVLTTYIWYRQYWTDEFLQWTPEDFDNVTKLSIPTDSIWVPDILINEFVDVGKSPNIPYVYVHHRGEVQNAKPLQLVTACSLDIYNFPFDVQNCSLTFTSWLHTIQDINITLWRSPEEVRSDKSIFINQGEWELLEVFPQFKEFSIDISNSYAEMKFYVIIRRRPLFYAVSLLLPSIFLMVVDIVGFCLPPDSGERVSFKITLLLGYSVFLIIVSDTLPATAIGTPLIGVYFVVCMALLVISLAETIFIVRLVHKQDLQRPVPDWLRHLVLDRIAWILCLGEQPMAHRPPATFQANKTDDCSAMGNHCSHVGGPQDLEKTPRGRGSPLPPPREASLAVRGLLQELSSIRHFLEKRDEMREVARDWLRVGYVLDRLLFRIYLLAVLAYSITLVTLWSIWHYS

[2] = biological target: T2, Q150A mutant mouse 5-HT3ASR (Mus musculus, UniProt P23979, Q151A); assay: [^3H]granisetron saturation binding, Q150A receptor; conditions: ± SE
T2 sequence (P23979 24-483 isoform P23979-2 Q151A): T1 sequence (P23979 24-483 isoform P23979-2 Y153A) with Q128A, A130Y

[3] = biological target: T3, R146A mutant mouse 5-HT3ASR (Mus musculus, UniProt P23979, R147A); assay: [^3H]granisetron saturation binding, R146A receptor; conditions: ± SE
T3 sequence (P23979 24-483 isoform P23979-2 R147A): T1 sequence (P23979 24-483 isoform P23979-2 Y153A) with R124A, A130Y

wildtype mouse 5-HT3ASR = biological target: T4, wildtype mouse 5-HT3ASR (Mus musculus, UniProt P23979); assay: [^3H]granisetron saturation binding, wildtype receptor
T4 sequence (P23979 24-483 isoform P23979-2 limits assumed): T1 sequence (P23979 24-483 isoform P23979-2 Y153A) with A130Y

[4] = biological target: T5, K153A mutant mouse 5-HT3ASR (Mus musculus, UniProt P23979, K154A); assay: [^3H]granisetron saturation binding, K153A receptor; conditions: ± SE
T5 sequence (P23979 24-483 isoform P23979-2 K154A): T1 sequence (P23979 24-483 isoform P23979-2 Y153A) with A130Y, K131A

With `CN1C2CCCC1CC(NC(=O)c1nn(C)c3ccccc13)C2` (centres unmarked) [[^3H]granisetron] the Bmax [1] was 0.59 ± .10 pmol/mg protein, the Bmax [2] was 0.56 ± .09 pmol/mg protein and the Bmax [3] was 1.0 ± .16 pmol/mg protein. For the same molecule, the Bmax (wildtype mouse 5-HT3ASR; absence of protease inhibitor, ± SE) was 3.2 ± 0.13 pmol/mg protein and 3.2 ± .13 pmol/mg protein, the “Bmax (+ protease inhibitor)” value (wildtype mouse 5-HT3ASR; membranes prepared in the presence of protease inhibitor cocktail) was 3.1 ± 0.11 pmoles/mg protein and the “Hill coefficient (n)” value (wildtype mouse 5-HT3ASR; ± SE) was 1 ± 0.12. The Bmax [4] was 0.30 pmol/mg protein and 0.30 ± .08 pmol/mg protein and the “Hill coefficient (n)” value [4] was 1.51 ± 0.17.
